# Measured values reported in ChEMBL document CHEMBL1136576, “Synthesis of N,N',N"-trisubstituted thiourea derivatives and their antagonist effect on the vanilloid receptor” (Bioorg Med Chem Lett, 2003).
# How the values were obtained:
# [1] = target: T1, Vanilloid receptor (Rattus norvegicus, UniProt Q9ERZ8+Q9WUD2+O35433); assay: Antagonistic activity against vanilloid receptor as concentration to reduce the response to […] by 50% from neonatal rat culture spinal sensory neurons using [Ca2+] -influx assay; assay type: functional
# [2] = target: T1, Vanilloid receptor; assay: Agonistic activity towards vanilloid receptor, [Ca2+] influx in neonatal rat spinal sensory neuronal culture; assay type: functional
IC50 [1] [nM],EC50 [2] [nM],SMILES
0.5,,COc1cc(CCCN(CCc2ccc([N+](=O)[O-])cc2)/C(S)=N/CCc2ccccc2)ccc1O
0.95,,COc1cc(CCCN(CCc2ccc(C)cc2)/C(S)=N/CCc2ccccc2)ccc1O
0.46,,COc1cc(CCCN(/C(S)=N/CCc2ccccc2)C(c2ccccc2)c2ccccc2)ccc1O
0.95,,COc1cc(CCCN(Cc2ccccc2)/C(S)=N/CCc2ccccc2)ccc1O
,> 30000,COc1cc(CCCN(C)/C(S)=N/CCc2ccccc2)ccc1O
0.55,,COc1cc(CCCN(CCc2ccc(Cl)cc2)/C(S)=N/CCc2ccccc2)ccc1O
3,,COc1cc(CCCN(/C(S)=N/CCc2ccccc2)C2CCCCC2)ccc1O
9.3,,CC(C)N(CCCc1ccc(O)c(O)c1)/C(S)=N/CCc1ccccc1
> 30,,CCN(CCCc1ccc(O)c(OC)c1)/C(S)=N/CCc1ccccc1
12,,CCCN(CCCc1ccc(O)c(OC)c1)/C(S)=N/CCc1ccccc1
> 30,,CC(C)N(CCCc1ccc(O)cc1)/C(S)=N/CCc1ccccc1
,> 30000,COc1cc(CCC/N=C(\S)NCCc2ccccc2)ccc1O
5.1,,COc1cc(CCCN(CCc2ccccc2)/C(S)=N/CCc2ccc(F)cc2)ccc1O
10.5,,COc1ccc(CCCN(/C(S)=N/CCc2ccccc2)C(C)C)cc1OC
1.2,,COc1cc(CCCN(CCc2ccc(F)cc2)/C(S)=N/CCc2ccccc2)ccc1O
6.1,,COc1cc(CCCCN(CCc2ccccc2)/C(S)=N/CCc2ccccc2)ccc1O
0.72,,COc1ccc(CCN(CCCc2ccc(O)c(OC)c2)/C(S)=N/CCc2ccccc2)cc1
10,,CCCCN(CCCc1ccc(O)c(OC)c1)/C(S)=N/CCc1ccccc1
> 30,,CCCCCCCCN(CCCc1ccc(O)c(OC)c1)/C(S)=N/CCc1ccccc1
3.2,,COc1cc(CCCN(CCCc2ccccc2)/C(S)=N/CCc2ccccc2)ccc1O
0.32,,COc1cc(CCCN(CCc2ccccc2)/C(S)=N/CCc2ccccc2)ccc1O
2.4,,COc1cc(CCCN(CCc2ccccc2)/C(S)=N/CCc2ccc(Cl)cc2)ccc1O
2.5,,COc1cc(CCCN(/C(S)=N/CCc2ccccc2)C(C)C)ccc1O
,3000,COc1cc(CCC2CCCN2/C(S)=N/CCc2ccccc2)ccc1O (stereo not given)
650000,,Oc1cc2c(cc1O)CN(C(=S)NCCc1ccc(Cl)cc1)CCC2 [CAPSAZEPINE]
